Holding throughout (format): cell-based
Assay [1] relates to HIV-1 LTR promoter. To be noted: for variability in gene expression (noise magnitude) / mean expression level: known transcriptional modulators applied to the isoclone target.
Assay [2] has as its system HIV-1 LTR promoter. Description: Two-reporter system (LTR-d2GFP and LTR-mCherry) noise measurement. Conditions: FIG. 6E; for transcriptional burst frequency (decreasing noise in mCherry): transcriptional modifiers; for d2GFP noise / mCherry noise: known transcriptional activators. As to the method:
Without being bound by theory, a destabilized reporter is required to observe transcriptional noise with shorter time scales. GFP noise magnitude (quantified by the variance over the mean fluorescence squared, CV^2) and mean fluorescence were measured by high-throughput flow cytometry 24 hours post 10 uM drug exposure. To control for extrinsic variability in gene expression due to cell volume and state a conservative gating on the population forward versus side scatter was applied (See General Methods). A second LTR driving a long-lived mCherry reporter was integrated and screened alongside the destabilized reporter drug target to control for fluctuations in global resources and post-transcriptional noise sources (FIG. 6E).
To distinguish between compounds that primarily target transcription versus post-transcriptional processes and global resources (extrinsic noise) a second reporter of the LTR promoter driving a stable mCherry gene was included in the same targeted cell population used in the drug noise screen (FIG. 6E). The stable reporter averages out and is unaffected by fluctuations due to episodic transcription. Theory predicts that the destabilized d2GFP reporter can detect transcriptional bursting noise contributions (γp>>kon,koff, where γp is the fluorescent reporter degradation rate) while the two reporters together will move their noise magnitudes to changes in non-transcriptional noise sources. Filtering out non-transcriptional noise signatures of VM hits increases the probability for synergistic reactivation of latency. Noise from the two reporters was compared using the same processing as the LTR-d2GFP. The LTR-mCherry ΔCV^2 of the 85 selected VMs primarily land along the ΔCV^2 d2GFP axis. […]. Of these 25 compounds 15 were identified as modifiers of cell cycle, ATP, inflammation, post-translational modifications, and translation.
In addition to the GFP reporter in the LTR-d2GFP cell line, an LTR driving a long half-life mCherry reporter was present in the cell line. […] To remove compounds that altered CV^2 post transcriptionally, compounds that affected the CV^2 long-lived red reporter while conserving its mean mCherry level were removed. This method continues development of the original and decade-old 2-reporter system for intrinsic versus extrinsic noise measurements in bacteria (Elowitz et al., (2002) Science 297:1183-1186).

Assay [3] has as its system latent HIV-1 in JLat 8.6 cells.
The mark [4] stands for this setting: Pharmakon 1600 library, 10 uM, 24 hours, FIG. 10.
Where [5] appears, read: with one or more of PMA, prostratin, TNFα, and bryostatin, FIG. 11.

Entries after “also recorded” stand apart in the source; their conditions may differ. Counter-ions that a name gives are not always drawn. Like-named read-outs stand apart in the source and are kept apart here.

As to `Nc1ncn([C@@H]2O[C@H](CO)[C@@H](O)[C@H]2O)c(=O)n1` [AZA, 4-Amino-1-(β-D-ribofuranosyl)1,3,5-triazin-2(1H)-one], the “identified as variability enhancer (VE) in noise screen” value (“identified as variability enhancer” for short) in the assay with HIV-1 LTR promoter [1] (setting [4]) is recorded as “variability enhancers”. In addition, the “variability in gene expression (noise magnitude)” value (“variability in gene expression” for short) in the assay on HIV-1 LTR promoter [1] (FIG. 6D) is on record as “increase variability in gene expression; also recorded: variability enhancers”. In addition, in the assay on HIV-1 LTR promoter [2], the “transcriptional burst frequency (decreasing noise in mCherry)” value is on record as “increase transcriptional burst frequency”.

Consider `CCC/C=C/C=C/C(=O)O[C@H]1/C(=C/C(=O)OC)C[C@H]2C[C@H]([C@@H](C)O)OC(=O)C[C@H](O)C[C@@H]3C[C@H](OC(C)=O)C(C)(C)[C@](O)(C[C@@H]4C/C(=C/C(=O)OC)C[C@H](/C=C/C(C)(C)[C@]1(O)O2)O4)O3` [Bryostatin, bryostatin], for which the mean expression level result with HIV-1 LTR promoter [1] (FIG. 6D) is reported as “scored lower”. Moreover, in the assay on HIV-1 LTR promoter [2], the d2GFP noise entry is “decrease both mCherry and d2GFP noise”; the mCherry noise entry is “decrease both mCherry and d2GFP noise”; the “transcriptional burst frequency (decreasing noise in mCherry)” value is given as “increase transcriptional burst frequency”.

Turning to `Nc1ccccc1NC(=O)c1ccc(CNC(=O)OCc2cccnc2)cc1` [MS-275, 3-pyridinylmethyl [[4-[[(2-aminophenyl)amino]carbonyl]phenyl]methyl]carbamate], the “variability in gene expression” value with HIV-1 LTR promoter [1] (FIG. 6D) is on record as “increase variability in gene expression; also recorded: variability enhancers”. In the assay with HIV-1 LTR promoter [2], the d2GFP noise result is given as “increase d2GFP noise”, the mCherry noise entry was “decrease mCherry noise” and the “transcriptional burst frequency (decreasing noise in mCherry)” value is given as “increase transcriptional burst frequency”.

Consider `CCCCCCCCCCCCCC(=O)O[C@@H]1[C@@H](C)[C@@]2(O)[C@@H](C=C(CO)C[C@]3(O)C(=O)C(C)=C[C@@H]23)[C@@H]2C(C)(C)[C@]12OC(C)=O` [PMA, phorbol 12-myristate 13-acetate], for which, in the assay on HIV-1 LTR promoter [1] (activator drugs, FIG. 6D), the burst frequency entry is “increase burst frequency”. For the same compound, in the assay with HIV-1 LTR promoter [1] (FIG. 6D), the mean expression level entry is listed as “increase mean expression level” and the “variability in gene expression” value is recorded as “decrease variability in gene expression; also recorded: decrease noise magnitude”. Also, in the assay with HIV-1 LTR promoter [2], the d2GFP noise entry was “decrease both mCherry and d2GFP noise”; the mCherry noise result is “decrease both mCherry and d2GFP noise”; the “transcriptional burst frequency (decreasing noise in mCherry)” value was “increase transcriptional burst frequency”.

In the case of `O=c1[nH]c(=O)n(Cl)c(=O)n1Cl` [V63, troclosene potassium], the “synergy in reactivation of HIV-1 latency” value in assay [3] is reported as “synergized”. Further, in the assay with HIV-1 LTR promoter [1], the “identified as variability enhancer” value is recorded as “variability enhancers”.

Turning to `Oc1ccc(O)cc1` [V76, hydroquinone], the “synergy in reactivation of HIV-1 latency” value in assay [3] is “synergized”. Besides, the “identified as variability enhancer” value in the assay on HIV-1 LTR promoter [1] is recorded as “variability enhancers”.

As for `CO[C@H]1C[C@H](O[C@@H]2/C(C)=C/C[C@@H]3C[C@@H](C[C@]4(CC[C@H](C)[C@@H](C5CCCCC5)O4)O3)OC(=O)[C@@H]3C=C(C)/C(=N/O)[C@H]4OC/C(=C\C=C\[C@@H]2C)[C@]43O)O[C@@H](C)[C@@H]1O` [V77, selamectin], the “synergy in reactivation of HIV-1 latency” value in assay [3] is listed as “synergized”. Moreover, in the assay on HIV-1 LTR promoter [1], the “identified as variability enhancer” value is given as “variability enhancers”.

Take `N[C@@H](Cc1ccc(O)c(O)c1)C(=O)O` [V78, levodopa]: in assay [3], the “synergy in reactivation of HIV-1 latency” value is reported as “synergized”. Also, the “identified as variability enhancer” value in the assay with HIV-1 LTR promoter [1] (setting [4]) was “variability enhancers”.

In the case of `CC(C)[C@H](N)C(=O)OCC(CO)OCn1cnc2c(=O)nc(N)[nH]c21` (stereo partly drawn) [V80, valganciclovir hydrochloride], the “synergy in reactivation of HIV-1 latency” value in assay [3] was “synergized”. Moreover, the “identified as variability enhancer” value in the assay with HIV-1 LTR promoter [1] (setting [4]) is recorded as “variability enhancers”.

As to `CC(C)NCC(O)c1ccc(NS(C)(=O)=O)cc1` (stereo not drawn) [V83, sotalol hydrochloride], the “synergy in reactivation of HIV-1 latency” value in assay [3] was “synergized”. Further, the “identified as variability enhancer” value with HIV-1 LTR promoter [1] (setting [4]) is on record as “variability enhancers”.

Turning to `COc1ccccc1OCCNCC(O)COc1cccc2[nH]c3ccccc3c12` (stereo not drawn) [V84, carvedilol], in assay [3], the “synergy in reactivation of HIV-1 latency” value is on record as “synergized”. Further, the “identified as variability enhancer” value in the assay on HIV-1 LTR promoter [1] (setting [4]) is recorded as “variability enhancers”.

`O=C(O)[C@H]1/C(=C/CO)O[C@@H]2CC(=O)N21` [V85, clavulanate lithium]: the “synergy in reactivation of HIV-1 latency” value in assay [3] is reported as “synergized”. Besides, the “identified as variability enhancer” value in the assay with HIV-1 LTR promoter [1] (setting [4]) is given as “variability enhancers”.

For the compound `CNC(C)C(O)c1ccccc1` (stereo not drawn) [V87, racephedrine hydrochloride], in assay [3], the “synergy in reactivation of HIV-1 latency” value was “synergized”. For the same compound, the “identified as variability enhancer” value in the assay with HIV-1 LTR promoter [1] (setting [4]) is on record as “variability enhancers”.

Take `CC(C)(CO)[C@@H](O)C(=O)NCCCO` [V90, dexpanthenol]: the “synergy in reactivation of HIV-1 latency” value in assay [3] is listed as “synergized”. The “identified as variability enhancer” value with HIV-1 LTR promoter [1] (setting [4]) is reported as “variability enhancers”.

Consider `CCCc1nc(C)c2c(=O)[nH]c(-c3cc(S(=O)(=O)N4CCN(CC)CC4)ccc3OCC)nn12` [V91, vardenafil hydrochloride], for which the “synergy in reactivation of HIV-1 latency” value in assay [3] is on record as “synergized”. Also, the “identified as variability enhancer” value in the assay on HIV-1 LTR promoter [1] (setting [4]) was “variability enhancers”.

Regarding `COc1ccccc1O` [V92, guaiacol], in assay [3], the “synergy in reactivation of HIV-1 latency” value is listed as “synergized”. In the assay with HIV-1 LTR promoter [1] (setting [4]), the “identified as variability enhancer” value is listed as “variability enhancers”.

For the compound `COCCCOc1ccnc(C[S+]([O-])c2nc3ccccc3[nH]2)c1C` (stereo not drawn) [V93, rabeprazole sodium], the “synergy in reactivation of HIV-1 latency” value in assay [3] is “synergized”. Besides, the “identified as variability enhancer” value with HIV-1 LTR promoter [1] (setting [4]) is “variability enhancers”.

For the compound `CCC(=O)O[C@]1(C(=O)CCl)[C@@H](C)C[C@H]2[C@@H]3CCC4=CC(=O)C=C[C@]4(C)[C@@]3(F)[C@@H](O)C[C@@]21C` [V94, clobetasol propionate], the “synergy in reactivation of HIV-1 latency” value in assay [3] was “synergized”. In addition, the “identified as variability enhancer” value with HIV-1 LTR promoter [1] (setting [4]) is on record as “variability enhancers”.

In the case of `COc1c(C)c2c(c(O)c1C/C=C(\C)CCC(=O)O)C(=O)OC2` [V95, mycophenolic acid], the “synergy in reactivation of HIV-1 latency” value in assay [3] is reported as “synergized”. Also, in the assay with HIV-1 LTR promoter [1] (setting [4]), the “identified as variability enhancer” value was “variability enhancers”.

In the case of `CC(=O)OCC(=O)[C@@]1(O)CC[C@H]2[C@@H]3CCC4=CC(=O)CC[C@]4(C)[C@@]3(F)[C@@H](O)C[C@@]21C` [V96, fludrocortisone acetate], the “synergy in reactivation of HIV-1 latency” value in assay [3] was “synergized”. Besides, in the assay with HIV-1 LTR promoter [1], the “identified as variability enhancer” value was “variability enhancers”.

In the case of `CCN(C(C)=O)c1cccc(-c2ccnc3c(C#N)cnn23)c1` [V97, zaleplon], in assay [3], the “synergy in reactivation of HIV-1 latency” value is given as “synergized”. In the assay on HIV-1 LTR promoter [1] (setting [4]), the “identified as variability enhancer” value is on record as “variability enhancers”.

As to `CCCCC(CC)COc1ccc(-c2nc(-c3ccc(OC)cc3)nc(-c3ccc(OCC(CC)CCCC)cc3O)n2)c(O)c1` (stereo not drawn) [V98, bemotrizinol], the “synergy in reactivation of HIV-1 latency” value in assay [3] was “synergized”. The “identified as variability enhancer” value with HIV-1 LTR promoter [1] (setting [4]) was “variability enhancers”.

For the compound `Oc1ccc(Cl)cc1` [V99, parachlorophenol], in assay [3], the “synergy in reactivation of HIV-1 latency” value was “synergized”. Besides, in the assay on HIV-1 LTR promoter [1], the “identified as variability enhancer” value is recorded as “variability enhancers”.

For the compound `O=[N+]([O-])OCC(CO[N+](=O)[O-])O[N+](=O)[O-]` [V100, nitroglycerin], the “synergy in reactivation of HIV-1 latency” value in assay [3] was “synergized”. Besides, the “identified as variability enhancer” value in the assay with HIV-1 LTR promoter [1] (setting [4]) is reported as “variability enhancers”.

Turning to `CC(=O)Nc1c(I)cc(I)c(C(=O)O)c1I` [V102, acetriazoic acid], in assay [3], the “synergy in reactivation of HIV-1 latency” value was “synergized”. For the same compound, the “identified as variability enhancer” value in the assay on HIV-1 LTR promoter [1] is reported as “variability enhancers”.

Consider acetophenazine maleate [V12], for which the “synergy in reactivation of HIV-1 latency” value in assay [3] is listed as “synergized”. In the assay on HIV-1 LTR promoter [1], the “identified as variability enhancer” value was “variability enhancers”.

carboplatin [V71]: the “synergy in reactivation of HIV-1 latency” value in assay [3] (setting [5]) is “synergized”. Further, in the assay on HIV-1 LTR promoter [1] (setting [4]), the “identified as variability enhancer” value was “variability enhancers”.

With colesevalam hydrochloride [V60], the “synergy in reactivation of HIV-1 latency” value in assay [3] is listed as “synergized”. Besides, the “identified as variability enhancer” value in the assay on HIV-1 LTR promoter [1] (setting [4]) was “variability enhancers”.

For the compound colistin sulfate [V45], in assay [3] (setting [5]), the “synergy in reactivation of HIV-1 latency” value was “synergized”. Moreover, the “identified as variability enhancer” value with HIV-1 LTR promoter [1] (setting [4]) was “variability enhancers”.

sucralfate [V79]: the “synergy in reactivation of HIV-1 latency” value in assay [3] is “synergized”. For the same compound, the “identified as variability enhancer” value in the assay on HIV-1 LTR promoter [1] (setting [4]) is “variability enhancers”.
